Measured values reported in ChEMBL document CHEMBL3351786, “Drug discovery targeting cell division proteins, microtubules and FtsZ” (Bioorg Med Chem, 2014).

How the values were obtained:
Type in all cases: functional
HeLa = assay: Mitotic arrest in human HeLa cells assessed as apoptosis at 5 nM after 24 hrs by TUNEL assay
A2780 [1] = assay: Resistance factor, ratio of IC50 for paclitaxel-resistant human 1A9PTX10 cells to ratio of IC50 for human A2780 cells
A2780 [2] = assay: Resistance factor, ratio of IC50 for paclitaxel-resistant human 1A9PTX22 cells to ratio of IC50 for human A2780 cells

| Compound | Activity (HeLa) [%] | Ratio IC50 (A2780 [1]) | Ratio IC50 (A2780 [2]) |
| --- | --- | --- | --- |
| CCC(=O)O[C@H]1C(=O)[C@@]2(C)[C@H]([C@H](OC(=O)c3ccccc3)[C@]3(O)C[C@H](OC(=O)[C@H](O)[C@H](C=C(C)C)NC(=O)OC(C)(C)C)C(C)=C1C3(C)C)[C@]1(OC(C)=O)CO[C@@H]1C[C@@H]2O | 70 |  |  |
| CCC(=O)O[C@H]1C(=O)[C@@]2(C)[C@H]([C@H](OC(=O)c3cccc(OC)c3)[C@]3(O)C[C@H](OC(=O)[C@H](O)[C@H](C=C(C)C)NC(=O)OC(C)(C)C)C(C)=C1C3(C)C)[C@]1(OC(C)=O)CO[C@@H]1C[C@@H]2O |  | 4.8 | 5.1 |
